Reference: paper PMC7396128 (Nature medicine, 2019)

Columns and labels:
HIV-1 = conditions: 500 nM, 12 hpi, MOI 70
HIV-1IIIB [1] = assay type: cell-based; conditions: MT-4 cells
MT-4 cells = conditions: read-out: mean 50% cytotoxicity concentration, CC50
HIV-1IIIB [2] = test: ultrastructural analysis of HIV-1 virions by electron microscopy; assay type: cell-based; conditions: 500 nM
HIV-1YU2 = test: antiviral efficacy in HIV-1YU2-infected humanized NOG mice; assay type: in vivo

Compound: C[C@@H]1CCO[C@H]2Cn3cc(C(=O)NCc4ccc(F)cc4F)c(=O)c(O)c3C(=O)N12 [DTG, dolutegravir]
- effect on capsid and vDNA fluorescent signals (HIV-1): did not alter either fluorescent signal

Compound: Cc1[nH]c2ccccc2c1CC(=O)N[C@@H](Cc1ccccc1)C(=O)N(C)c1ccccc1 [PF74]
- selectivity index (CC50/EC50 ratio) (HIV-1IIIB [1]): 26
- fold weaker antiviral potency than GS-CA1 (HIV-1IIIB [1]; HIV-1IIIB): > 5,000 fold
- EC50 (HIV-1IIIB [1]; read-out: mean EC50, HIV-1IIIB, n = 43): 1.24 µM
- CC50 (MT-4 cells): 32.2 ± 9.3 µM

Compound: COC(=O)N[C@H](C(=O)N[C@@H](Cc1ccccc1)[C@@H](O)CN(Cc1ccc(-c2ccccn2)cc1)NC(=O)[C@@H](NC(=O)OC)C(C)(C)C)C(C)(C)C [ATV, atazanavir]
- capsid morphology in released virions (HIV-1IIIB [2]): predominantly contained immature Gag/Gag-Pol lattices

Compound: Cc1cc(/C=C/C#N)cc(C)c1Nc1ccnc(Nc2ccc(C#N)cc2)n1 [RPV, rilpivirine]
- capsid levels (HIV-1): 100 % of control
- vDNA (HIV-1): 14 % of control
- treated animals with rapid emergence of drug resistance (HIV-1YU2; 160 mg/kg every 2 weeks): 80%
- animals returning to baseline viremia by week 10 (HIV-1YU2; 160 mg/kg s.c. daily for 7 days then every two weeks): 4/5
